Results published in the NIST ThermoML archive (doi:10.1016/j.jct.2012.02.017).

Columns and labels:
[1] = Ring tensiometer
[2] = xn = mol fraction of the nth substance listed; details: Ring tensiometer

CCO [ethanol]
[1]
Details	surface tension liquid-gas [mN/m]
288.15 K	22.08
298.15 K	21.19
308.15 K	20.35
318.15 K	20.18

CO [methanol]
[1]
Details	surface tension liquid-gas [mN/m]
288.15 K	22.37
298.15 K	21.64
308.15 K	20.94
318.15 K	19.93

CCCO [propan-1-ol]
[1]
Details	surface tension liquid-gas [mN/m]
288.15 K	23.34
298.15 K	22.54
308.15 K	21.62
318.15 K	20.99

[2H]O[2H] [water-d2]
[1]
Details	surface tension liquid-gas [mN/m]
288.15 K	73.59
298.15 K	71.87
308.15 K	70.21
318.15 K	68.84

[2H]O[2H] [water-d2] + CCCO
surface tension liquid-gas [mN/m], [2]
Details	288.15 K	298.15 K	308.15 K	318.15 K
x2 = 0.0007	70.61	68.81	67.5	66.16
x2 = 0.002	66.37	63.94	62.32	61.9
x2 = 0.0033	62.9	58.5	56.44	54.18
x2 = 0.0047	60.07	55.76	53.57	50.4
x2 = 0.006	57.59	54.16	52.75	48.26
x2 = 0.0099	52.32	48.49	46.75	45.22
x2 = 0.0165	45.84	43.67	40.52	39.54
x2 = 0.0255	41.34	39.38	38.39	37.11
x2 = 0.038	36.34	34.78	33.31	32.45
x2 = 0.0622	29	28.09	27.45	27.03
x2 = 0.138	25.81	24.9	24.75	23.58
x2 = 0.1851	25.78	25.09	24.19	23.62
x2 = 0.2272	25.17	24.99	24.38	23.37
x2 = 0.351	24.57	23.79	23.5	22.88
x2 = 0.4933	24.2	23.58	22.8	22.12
x2 = 0.6187	23.84	22.94	22.54	21.8
x2 = 0.8296	23.48	22.64	22.46	21.64

[2H]O[2H] [water-d2] + CCO
surface tension liquid-gas [mN/m], [2]
Details	288.15 K	298.15 K	308.15 K	318.15 K
x2 = 0.0008	72.5	70.96	69.43	67.73
x2 = 0.0016	71.29	69.78	68.35	66.43
x2 = 0.0023	70.28	68.67	67.12	65.55
x2 = 0.0039	68.68	66.88	65.22	63.52
x2 = 0.007	65.31	63.61	61.92	60.23
x2 = 0.0116	62.13	59.42	58.1	56.98
x2 = 0.0191	57.62	53.65	52.63	51.86
x2 = 0.0295	52.54	50.9	48.05	47.3
x2 = 0.044	47.97	46.07	44.17	42.27
x2 = 0.0716	41.94	38.62	36.3	33.32
x2 = 0.1103	36.22	34.15	33.1	31.3
x2 = 0.157	32	30.33	29.1	27.58
x2 = 0.1991	30.52	29.16	28.14	27.03
x2 = 0.2462	29.15	28.17	27.39	26.56
x2 = 0.345	27.29	25.99	25.03	24.63
x2 = 0.4209	26.21	25.23	23.67	22.85
x2 = 0.4811	25.3	24.59	23.56	22.7
x2 = 0.5703	24.34	23.44	23.02	22.3
x2 = 0.6752	23.36	22.45	21.97	21.57
x2 = 0.7572	22.98	21.59	20.92	20.9
x2 = 0.8618	22.37	21.48	20.41	20.11

[2H]O[2H] [water-d2] + CO
surface tension liquid-gas [mN/m], [2]
Details	288.15 K	298.15 K	308.15 K	318.15 K
x2 = 0.0045	71.03	69.55	68.1	66.54
x2 = 0.0154	66.2	65.13	64.17	62.8
x2 = 0.0304	61.24	60.45	59.67	58.88
x2 = 0.0509	56.43	55.33	54.09	52.97
x2 = 0.0707	52.83	52.04	51.25	50.48
x2 = 0.0896	50.23	49.45	48.65	47.92
x2 = 0.1252	45.79	45.01	44.56	42.8
x2 = 0.1737	42.45	41.8	40.26	39.66
x2 = 0.2171	38.51	38.07	37.7	36.61
x2 = 0.2684	36.01	35.49	35.1	34.16
x2 = 0.3133	34.68	34.05	33.49	32.65
x2 = 0.353	33.4	32.79	32.05	31.79
x2 = 0.4271	31.83	30.79	30.29	29.42
x2 = 0.5279	29.14	29.01	28.68	27.75
x2 = 0.691	26.15	25.65	25.06	24.38
x2 = 0.8173	23.49	22.96	22.48	21.75
